Measured values published in patent publication US20230233640A1, “ANTIVIRAL PREPARATION FROM CHESTNUT SHELLS OF CASTANEA SATIVA MILL” (Micronature S.R.L., priority 2019, published 2023).
Read-outs that look alike come from different tables or passages of the source.

Experiments:
[1] = Cytotoxicity in MT-4 cells (MTT); format: cell-based; conditions: human
Description: (§1) Cell lines were purchased from American Type Culture Collection (ATCC). The absence of mycoplasma contamination was checked periodically by the Hoechst staining method. Cell lines supporting the multiplication of RNA viruses were the following: CD4+ human T-cells containing an integrated HTLV-1 genome (MT-4); Madin Darby Bovine Kidney (MDBK) [ATCC CCL 22 (NBL-1) Bos Taurus]; Baby Hamster Kidney (BHK-21) [ATCC CCL 10 (C-13) Mesocricetus auratus], Vero cells (CCL-81; American Type Culture Collection, Manassas, VA, USA)
(§2) Cytotoxicity assays were run in parallel with antiviral assays.
Exponentially growing MT-4 cells were seeded at an initial density of 1 × 10^5 cells/ml in 96-well plates in RPMI-1640 medium, supplemented with 10% fetal bovine serum (FBS), 100 units/mL penicillin G and 100 µg/mL streptomycin. Cell cultures were then incubated at 37° C. in a humidified, 5% CO2 atmosphere, in the absence or presence of serial dilutions of test compounds. Cell viability was determined after 96 hrs at 37° C. by the 3-(4,5-dimethylthiazol-2-yl)-2,5-diphenyl-tetrazolium bromide (MTT) method (Pauwels et al. 1988).

BVDV = format: cell-based, bovine viral diarrhoea virus (BVDV) strain NADL; conditions: reference marked * (µM); 50% protection of MDBK cells; read-out: In vitro efficacy EC50 BVDV
MDBK cells = assay: Cytotoxicity in MDBK cells (MTT); format: cell-based, Bos Taurus; conditions: reference marked * (µM)
Description: as §1, §2
MDBK cells were seeded in 96-well plates at an initial density of 6 × 10^5 and 1 × 10^6 cells/mL, respectively, in Minimum Essential Medium with Earle’s salts (MEM-E), L-glutamine, 1 mM sodium pyruvate and 25 mg/L kanamycin, supplemented with 10% horse serum (MDBK). Cell cultures were then incubated at 37° C. in a humidified, 5% CO2 atmosphere in the absence or presence of serial dilutions of test compounds. Cell viability was determined after 72 hrs at 37° C. by the MTT method. […] Vero cells (1 × 10^6) were plated in 6-well multiwells and incubated the next day with the substance at the same concentrations used in the antiviral assays. […]

[2] = Cytotoxicity in VERO cells; format: cell-based; conditions: reference marked * (µM)
Description: as §2

## enfuvirtide
[1]; mock-infected MT-4 cells, viability reduced by 50%, MTT method, read-out: Cytotoxicity in MT-4 cells CC50
  CC50 at 96 h: > 100 µg/mL

## C[C@@]1(O)[C@H](O)[C@@H](CO)O[C@H]1n1cnc2c(=O)[nH]c(N)nc21 [NM 108]
BVDV
  EC50: 1.6 µM
MDBK cells
  CC50: > 100 µM

## CC[C@H](C)[C@H](NC(=O)[C@H](C)NC(=O)[C@H](CCC(=O)O)NC(=O)[C@H](CCC(=O)O)NC(=O)[C@H](CC(C)C)NC(=O)[C@H](CCCCN)NC(=O)[C@H](CCCCN)NC(=O)[C@H](CCSC)NC(=O)[C@H](CCC(=O)O)NC(=O)[C@H](Cc1ccc(O)cc1)NC(=O)[C@H](CCC(=O)O)NC(=O)[C@H](CC(C)C)NC(=O)[C@H](CC(=O)O)NC(=O)[C@H](CC(C)C)NC(=O)[C@H](Cc1ccccc1)NC(=O)[C@@H](NC(=O)[C@@H](NC(=O)[C@H](CC(N)=O)NC(=O)[C@@H](NC(=O)[C@H](CCC(N)=O)NC(=O)[C@H](CC(=O)O)NC(=O)[C@H](CC(C)C)NC(=O)[C@@H](N)CO)[C@@H](C)CC)C(C)C)[C@@H](C)O)C(=O)N[C@@H](CCCCN)C(=O)N[C@@H](CCCCN)C(=O)N[C@@H](CC(C)C)C(=O)N[C@@H](CCC(=O)O)C(=O)N[C@@H](CCC(=O)O)C(=O)N[C@@H](CO)C(=O)N[C@@H](Cc1ccc(O)cc1)C(=O)N[C@H](C(=O)N[C@@H](CC(=O)O)C(=O)N[C@@H](CC(C)C)C(=O)N[C@@H](CCCCN)C(=O)N[C@@H](CCC(=O)O)C(=O)N[C@@H](CC(C)C)C(=O)O)[C@@H](C)CC [EK1]
[2]
  CC50: > 100 µM
SARS-CoV-2
  EC50: 5.4 µM

## O=C1Nc2ccc(Cl)cc2[C@@](C#CC2CC2)(C(F)(F)F)O1 [EFV, Efavirenz]
[1]
  CC50 at 96 h: 40 µM

## Enfuvirtide
HIV-1
  In vitro efficacy EC50 HIV-1: 0.017 µg/mL
